Assay results published in patent US20190119348A1, “PARATHYROID HORMONE RECEPTOR 1 ANTAGONIST AND INVERSE AGONIST POLYPEPTIDES AND METHODS OF THEIR USE” (The General Hospital Corporation, priority 2016, published 2019).
Where a SMILES comes first, the peptide text is derived from it. [ ]: non-standard residue; d: D form. Nle = CCCC[C@H](N)C(=O)O

target: T1, endogenous hPTHR1 (Homo sapiens, UniProt Q03431); test: Antagonism of PTH(1-34)- and PTHrP(1-36)-induced cAMP response (GloSensor) in SGS-72 cells; type: cell-based; conditions: IC50 PTH(1-34) (Table 6, nanomolar value), antagonist pre-treatment 15 minutes, PTH(1-34) 0.3 nM
T1 construct: Saos-2, in which is endogenously expressed the hPTHR1; endogenous in cells
T1 sequence (Q03431 27-593): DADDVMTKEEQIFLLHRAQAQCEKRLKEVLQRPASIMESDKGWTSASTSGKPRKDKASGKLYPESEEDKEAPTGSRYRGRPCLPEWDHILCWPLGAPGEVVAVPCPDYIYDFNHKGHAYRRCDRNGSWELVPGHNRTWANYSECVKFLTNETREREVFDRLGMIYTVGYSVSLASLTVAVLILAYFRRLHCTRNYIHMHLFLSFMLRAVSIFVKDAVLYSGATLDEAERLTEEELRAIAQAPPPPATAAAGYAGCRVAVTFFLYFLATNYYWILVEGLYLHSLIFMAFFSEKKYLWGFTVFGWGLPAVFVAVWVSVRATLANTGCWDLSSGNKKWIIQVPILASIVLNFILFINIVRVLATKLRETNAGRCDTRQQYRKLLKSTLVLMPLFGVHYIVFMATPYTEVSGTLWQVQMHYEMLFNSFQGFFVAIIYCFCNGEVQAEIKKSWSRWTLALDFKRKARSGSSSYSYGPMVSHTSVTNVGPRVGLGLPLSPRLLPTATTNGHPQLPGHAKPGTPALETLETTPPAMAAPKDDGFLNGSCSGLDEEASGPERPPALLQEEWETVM
In short: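 SaOS2-derived SGS-72 cells, which express endogenous hPTHR1 and a stable GloSensor cAMP reporter, were loaded with 0.5 mM luciferin for 15 min at room temperature in CO2-independent medium with 0.1% BSA. Antagonist was tested against PTH(1-34) or PTHrP(1-36), with luminescence taken at the agonist-alone maximum; pIC50 came from four-parameter fits.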

In order of falling IC50:
1. CCCC[C@H](NC(=O)[C@H](CC(C)C)NC(=O)[C@H](CCC(N)=O)NC(=O)[C@@H](N)[C@@H](C)CC)C(=O)N[C@@H](Cc1c[nH]cn1)C(=O)N[C@@H](CCC(N)=O)C(=O)N[C@@H](CC(C)C)C(=O)N[C@H](Cc1c[nH]c2ccccc12)C(=O)N[C@@H](CCCCN)C(=O)N[C@@H](Cc1c[nH]c2ccccc12)C(=O)N[C@H](C(=O)N[C@@H](CCC(N)=O)C(=O)N[C@@H](CC(=O)O)C(=O)N[C@@H](C)C(=O)N[C@@H](CCCNC(=N)N)C(=O)N[C@@H](CCCNC(=N)N)C(=O)N[C@@H](CCCNC(=N)N)C(=O)N[C@@H](C)C(=O)N[C@@H](Cc1c[nH]c2ccccc12)C(=O)N[C@@H](CC(C)C)C(=O)N[C@@H](Cc1c[nH]cn1)C(=O)N[C@@H](CCCCN)C(=O)N[C@@H](CC(C)C)C(=O)N[C@H](C(=O)N[C@@H](C)C(=O)N[C@@H](CCC(=O)O)C(=O)N[C@H](C(=O)N[C@@H](Cc1c[nH]cn1)C(=O)N[C@H](C(=O)N[C@@H](C)C(=O)N[C@@H](CCC(=O)O)C(=O)N[C@H](C(N)=O)[C@@H](C)CC)[C@@H](C)O)[C@@H](C)CC)[C@@H](C)CC)[C@@H](C)CC [compound 1999, Nle8, L11, dW12, W23-LA-PTH(5-36)-1999] (H-IQL[Nle]HQL[dW]KWIQDARRRAWLHKLIAEIHTAEI-NH2; N-terminus assumed)  2.75 nM
2. CC[C@H](C)[C@H](N)C(=O)N[C@@H](CCC(N)=O)C(=O)N[C@@H](CC(C)C)C(=O)N[C@@H](CCSC)C(=O)N[C@@H](Cc1c[nH]cn1)C(=O)N[C@@H](CCC(N)=O)C(=O)N[C@@H](CC(C)C)C(=O)N[C@H](Cc1c[nH]c2ccccc12)C(=O)N[C@@H](CCCCN)C(=O)N[C@@H](Cc1c[nH]c2ccccc12)C(=O)N[C@H](C(=O)N[C@@H](CCC(N)=O)C(=O)N[C@@H](CC(=O)O)C(=O)N[C@@H](C)C(=O)N[C@@H](CCCNC(=N)N)C(=O)N[C@@H](CCCNC(=N)N)C(=O)N[C@@H](CCCNC(=N)N)C(=O)N[C@@H](C)C(=O)N[C@@H](Cc1c[nH]c2ccccc12)C(=O)N[C@@H](CC(C)C)C(=O)N[C@@H](Cc1c[nH]cn1)C(=O)N[C@@H](CCCCN)C(=O)N[C@@H](CC(C)C)C(=O)N[C@H](C(=O)N[C@@H](C)C(=O)N[C@@H](CCC(=O)O)C(=O)N[C@H](C(=O)N[C@@H](Cc1c[nH]cn1)C(=O)N[C@H](C(=O)N[C@@H](C)C(=O)N[C@@H](CCC(=O)O)C(=O)N[C@H](C(N)=O)[C@@H](C)CC)[C@@H](C)O)[C@@H](C)CC)[C@@H](C)CC)[C@@H](C)CC [compound 2003, L11, dW12, W23-LA-PTH(5-36)-2003] (H-IQLMHQL[dW]KWIQDARRRAWLHKLIAEIHTAEI-NH2; N-terminus assumed)  2.57 nM
3. CCCC[C@H](NC(=O)[C@@H](N)CC(C)C)C(=O)N[C@@H](Cc1c[nH]cn1)C(=O)N[C@@H](CCC(N)=O)C(=O)N[C@@H](CC(C)C)C(=O)N[C@H](Cc1c[nH]c2ccccc12)C(=O)N[C@@H](CCCCN)C(=O)N[C@@H](Cc1c[nH]c2ccccc12)C(=O)N[C@H](C(=O)N[C@@H](CCC(N)=O)C(=O)N[C@@H](CC(=O)O)C(=O)N[C@@H](C)C(=O)N[C@@H](CCCNC(=N)N)C(=O)N[C@@H](CCCNC(=N)N)C(=O)N[C@@H](CCCNC(=N)N)C(=O)N[C@@H](C)C(=O)N[C@@H](Cc1c[nH]c2ccccc12)C(=O)N[C@@H](CC(C)C)C(=O)N[C@@H](Cc1c[nH]cn1)C(=O)N[C@@H](CCCCN)C(=O)N[C@@H](CC(C)C)C(=O)N[C@H](C(=O)N[C@@H](C)C(=O)N[C@@H](CCC(=O)O)C(=O)N[C@H](C(=O)N[C@@H](Cc1c[nH]cn1)C(=O)N[C@H](C(=O)N[C@@H](C)C(=O)N[C@@H](CCC(=O)O)C(=O)N[C@H](C(N)=O)[C@@H](C)CC)[C@@H](C)O)[C@@H](C)CC)[C@@H](C)CC)[C@@H](C)CC [compound 1997, Nle8,L11, dW12, W23-LA-PTH(7-36)-1997] (H-L[Nle]HQL[dW]KWIQDARRRAWLHKLIAEIHTAEI-NH2; N-terminus assumed)  2.1 nM
4. CC[C@H](C)[C@H](NC(=O)[C@H](CCC(=O)O)NC(=O)[C@H](C)NC(=O)[C@@H](NC(=O)[C@H](Cc1c[nH]cn1)NC(=O)[C@@H](NC(=O)[C@H](CCC(=O)O)NC(=O)[C@H](C)NC(=O)[C@@H](NC(=O)[C@H](CC(C)C)NC(=O)[C@H](CCCCN)NC(=O)[C@H](Cc1c[nH]cn1)NC(=O)[C@H](CC(C)C)NC(=O)[C@H](Cc1c[nH]c2ccccc12)NC(=O)[C@H](C)NC(=O)[C@H](CCCNC(=N)N)NC(=O)[C@H](CCCNC(=N)N)NC(=O)[C@H](CCCNC(=N)N)NC(=O)[C@H](C)NC(=O)[C@H](CC(=O)O)NC(=O)[C@H](CCC(N)=O)NC(=O)[C@@H](NC(=O)[C@H](Cc1c[nH]c2ccccc12)NC(=O)[C@H](CCCCN)NC(=O)[C@@H](Cc1c[nH]c2ccccc12)NC(=O)[C@H](CC(C)C)NC(=O)[C@H](CCC(N)=O)NC(=O)[C@H](Cc1c[nH]cn1)NC(=O)[C@H](CCSC)NC(=O)[C@@H](N)CC(C)C)[C@@H](C)CC)[C@@H](C)CC)[C@@H](C)CC)[C@@H](C)O)C(N)=O [compound 2001, L11, dW12, W23-LA-PTH(7-36)-2001] (H-LMHQL[dW]KWIQDARRRAWLHKLIAEIHTAEI-NH2; N-terminus assumed)  2.08 nM
5. CCCC[C@H](NC(=O)[C@@H](N)CC(C)C)C(=O)N[C@@H](Cc1c[nH]cn1)C(=O)N[C@@H](CCC(N)=O)C(=O)N[C@@H](CCCNC(=N)N)C(=O)N[C@H](Cc1c[nH]c2ccccc12)C(=O)N[C@@H](CCCCN)C(=O)N[C@@H](Cc1c[nH]c2ccccc12)C(=O)N[C@H](C(=O)N[C@@H](CCC(N)=O)C(=O)N[C@@H](CC(=O)O)C(=O)N[C@@H](C)C(=O)N[C@@H](CCCNC(=N)N)C(=O)N[C@@H](CCCNC(=N)N)C(=O)N[C@@H](CCCNC(=N)N)C(=O)N[C@@H](C)C(=O)N[C@@H](Cc1c[nH]c2ccccc12)C(=O)N[C@@H](CC(C)C)C(=O)N[C@@H](Cc1c[nH]cn1)C(=O)N[C@@H](CCCCN)C(=O)N[C@@H](CC(C)C)C(=O)N[C@H](C(=O)N[C@@H](C)C(=O)N[C@@H](CCC(=O)O)C(=O)N[C@H](C(=O)N[C@@H](Cc1c[nH]cn1)C(=O)N[C@H](C(=O)N[C@@H](C)C(=O)N[C@@H](CCC(=O)O)C(=O)N[C@H](C(N)=O)[C@@H](C)CC)[C@@H](C)O)[C@@H](C)CC)[C@@H](C)CC)[C@@H](C)CC [compound 1992, Nle8, dW12, W23-LA-PTH(7-36)-1992] (H-L[Nle]HQR[dW]KWIQDARRRAWLHKLIAEIHTAEI-NH2; N-terminus assumed)  1.55 nM
6. CC[C@H](C)[C@H](NC(=O)[C@H](CCC(=O)O)NC(=O)[C@H](C)NC(=O)[C@@H](NC(=O)[C@H](Cc1c[nH]cn1)NC(=O)[C@@H](NC(=O)[C@H](CCC(=O)O)NC(=O)[C@H](C)NC(=O)[C@@H](NC(=O)[C@H](CC(C)C)NC(=O)[C@H](CCCCN)NC(=O)[C@H](Cc1c[nH]cn1)NC(=O)[C@H](CC(C)C)NC(=O)[C@H](Cc1c[nH]c2ccccc12)NC(=O)[C@H](C)NC(=O)[C@H](CCCNC(=N)N)NC(=O)[C@H](CCCNC(=N)N)NC(=O)[C@H](CCCNC(=N)N)NC(=O)[C@H](C)NC(=O)[C@H](CC(=O)O)NC(=O)[C@H](CCC(N)=O)NC(=O)[C@@H](NC(=O)[C@H](Cc1c[nH]c2ccccc12)NC(=O)[C@H](CCCCN)NC(=O)[C@@H](Cc1c[nH]c2ccccc12)NC(=O)[C@H](CCCNC(=N)N)NC(=O)[C@H](CCC(N)=O)NC(=O)[C@H](Cc1c[nH]cn1)NC(=O)[C@H](CCSC)NC(=O)[C@@H](N)CC(C)C)[C@@H](C)CC)[C@@H](C)CC)[C@@H](C)CC)[C@@H](C)O)C(N)=O [compound 1990, dW12, W23-LA-PTH(7-36)-1990] (H-LMHQR[dW]KWIQDARRRAWLHKLIAEIHTAEI-NH2; N-terminus assumed)  1.23 nM
